Key:
Erysiphe cichoracearum = assay: Powdery mildew of cucumber, systemic root uptake (CMS); type: in vivo; conditions: 45 ml of 250 mg/l, 8 days after inoculation
Outline: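 Pot soil of barley (BMS) and cucumber (CMS) plants was drenched with 45 ml of a 250 mg/l acetone/Tween 20 aqueous emulsion, with untreated plants as controls. Disease was scored on a rating scale that included intermediate grades.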

Botrytis cinerea = assay: Fungal growth inhibition, treated disc on agar (BOT CIN); type: cell-based; conditions: Botrytis cinerea, disc dipped in 500 mg/l, 29° C., read-out: Percent Growth Inhibition, BOT CIN
Excerpt: (§1) Filter paper discs, each 11 mm. in diameter, were dipped in each of the test solutions. The discs were allowed to air dry to drive off the acetone solvent. A number of untreated discs were used as controls.
(§2) The treated and untreated discs were then placed on agar plates and one of the following fungus species: Septoria nodorum (SEP NOD), Botrytis cinerea (BOT CIN), Fusarium oxysporum (FUS OXY), Pythium ultimum (PYT ULT), Rhizoctonia solani (RHI SOL), Colletotrichum gossypii (COL GOS), and Scierotinia minor (SCL MIN), was added to the center of each disc in the form of a culture plug with the fungus mat in contact with the paper of the test disc. Cercosporidium personatum (CER PER), was added to discs as a spore suspension (20,000 spores/ml) to the disc (two drops of spore suspension per disc), rather than a mycelial culture plug. The plates were then incubated at 29° C. in an oven.
(§3) With the exception of the discs containing Cercosporidium personatum, the discs were evaluated by first measuring the radius from the center of the fungus colony on the treated discs and on the untreated discs. Percent growth inhibition of each of the compounds tested was determined as a function of the difference between the radius of the fungus colony on the treated disc versus the radius of the fungus colony on the untreated disc.

Erysiphe polygoni = assay: Powdery mildew on pinto bean, foliar application (ERY POL); type: in vivo; conditions: Erysiphe polygoni, similar procedure as barley (1,000 mg/l), read-out: Percent Reduction of Disease, ERY POL
Outline: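 Pinto bean plants sprayed with compound emulsion (acetone or inert solvent, TWEEN 20, water) at 1,000 mg/l, or left unsprayed, dried, then inoculated with Erysiphe polygoni spores in a 21° C greenhouse. Disease scored; percent control computed against untreated controls.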

[1] = tested on: Cercosporidium personatum; assay: Fungal germination and growth, treated disc on agar, scored (CER PER); type: cell-based; design: key: 100: Complete inhibition of germination and growth.; 80: Nearly complete inhibition but some growth.; 50: Partial inhibition of growth or, early complete inhibition but later growth begins.; 20: Some inhibition of growth, but not significant.; 0: No inhibition of growth; conditions: disc dipped in 500 mg/l, 29° C., numerical score 0-100, spore suspension
Outline: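 Acetone test solutions dried on 11 mm filter paper discs, placed on agar; two drops of C. personatum spore suspension (20,000 spores/ml) applied per disc. Plates incubated at 29° C; germination and growth scored 0 (no inhibition) to 100 (complete inhibition), untreated discs as controls.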

Colletotrichum gossypii = assay: Fungal growth inhibition, treated disc on agar (COL GOS); type: cell-based; conditions: Colletotrichum gossypii, disc dipped in 500 mg/l, 29° C., read-out: Percent Growth Inhibition, COL GOS
Excerpt: as §1, §2, §3

Septoria nodorum = assay: Fungal growth inhibition, treated disc on agar (SEP NOD); type: cell-based; conditions: Parastagonospora nodorum, disc dipped in 500 mg/l, 29° C., read-out: Percent Growth Inhibition, SEP NOD
Excerpt: as §1, §2, §3

Row | SMILES | Percent Reduction of Disease, CMS (Erysiphe cichoracearum) [%] | inhibition at 500 µg/mL (Botrytis cinerea) [%] | pest or weed control at 1000 µg/mL (Erysiphe polygoni) [%] | CER PER inhibition score [1] | inhibition at 500 µg/mL (Colletotrichum gossypii) [%] | inhibition at 500 µg/mL (Septoria nodorum) [%]
1 | N#CC(CCc1ccc(F)cc1)(CCC(F)(F)F)c1cccnc1 (stereo not drawn) [Compound 77] | 100 | 65 | 100 | 0 | 15 | 20
2 | N#CC(CCCC(F)(F)F)(CCc1ccc(F)cc1)c1cccnc1 (stereo not drawn) [Compound 78] | 92 | 34 | 92 | 0 | 50 | 30
3 | Cc1ccc(CCC(C#N)(CCCC(F)(F)F)c2cccnc2)cc1 (stereo not drawn) [Compound 79] | 92 | 0 | 100 | 0 | 30 | 30
4 | Cc1ccc(CCC(C#N)(CCC(F)(F)F)c2cccnc2)cc1 (stereo not drawn) [Compound 80] | 92 | 9 | 100 | 0 | 59 | 0
5 | Cc1ccc(CCC(C#N)(CCCF)c2cccnc2)cc1 (stereo not drawn) [Compound 81] | 0 | 30 | 100 | 0 | 20 | 40

From patent US5945436A, “Pyridylmethyl nitriles, amides and thioamides useful as fungicides” (Uniroyal Chemical Company, Inc., priority 1997, dated 1999)
